The source of these data is patent US8673370B2, “Method of improving cardiovascular health” (.Kemin Foods, L.C., priority 2006, dated 2014).

Holding throughout (type): in vivo, rat
Experiment [1] has as its system spontaneously hypertensive (SHR) rats. In words: Mean arterial pressure (MAP), daily for 14 days, in conscious catheterized hypertensive rats. The procedure: (§1) Additionally, daily soy isoflavone (SoyLife®, Acatris, Minneapolis, Minn.) supplementation was administered with BCX to both normotensive (WKY) and spontaneously hypertensive (SHR) rats to determine any beneficial hemodynamic contributions of soy to genetic hypertension. Animals receiving daily oral doses of BCX or BCX combined with the soy extract and comparisons of specific hemodynamic parameters (heart rate and blood pressure) were monitored for a period of two weeks in SHR rats and their genetically WKY counterparts. Plasma hydrogen peroxide concentrations were evaluated and show the effects of BCX on reactive oxygen species and their purported contribution to elevations in blood pressure in this hypertensive animal paradigm (Wilcox C. S., Reactive oxygen species: roles in blood pressure and kidney function. Curr Hypertens Rep. 2002 April; 4(2):160-6).
(§2) 1. Three days prior to the beginning of experiments, femoral arterial and venous catheters were implanted for the measurement of blood pressure and heart rate and for the collection of blood samples for the analysis of plasma CRP and cholesterol. Animals were housed in metabolic cages for chronic daily analysis for the remainder of the protocol.
(§3) SHR and WKY rats (Harlan, Indianapolis, Ind.) at age 10 weeks and weighing ˜250 g were used as experimental subjects and monitored for a two week period. All experimental protocols were performed in conscious, unrestrained animals. The animals were individually housed in wire mesh cages in temperature-controlled rooms (23° C.) with a 12-hour light/dark cycle. Each animal was allowed free access to isoflavone reduced chow (Harlan, Indianapolis, Ind.) and distilled water throughout the protocol(s). In addition to ad libitum food and water, animals were dosed daily by oral gavage with BCX (1.0 mg/kg, in safflower oil) or BCX+soy (1.0 mg BCX/kg+80 mg isoflavones/kg, in safflower oil). BCX dosage levels were based on the amount of BCX humans consume when eating according to the Dietary Guidelines for Americans: 0.5-1.0 mg per day (United States Department of Health and Human Services and United States Department of Agriculture. Dietary Guidelines for Americans 2005. Jan. 12, 2005. http://www.healthierus.gov/dietaryguidelines/; Centers for Disease Control and Prevention. National Center for Health Statistics. National Health and Nutrition Examination Survey Data 2001-2002. http://www.cdc.gov/nchs/about/major/nhanes/nhanes01-02.htm).
All surgical procedures were performed in animals anesthetized with sodium pentobarbital (Nembutal®, Abbott Laboratories) at a dose of 50 mg/kg, i.p. In addition, all surgery was performed under sterile conditions in a location in the laboratory dedicated for that purpose and according to those procedures adopted by the IACUC at Des Moines University-Osteopathic Medical Center. The implantations of femoral arterial and venous catheters were performed three days prior to any experimentation. The arterial and venous catheters were constructed from silicone and Tygon® tubing (Saint-Gobain Performance Plastics Corporation). The smaller silicone tubing was placed within the vessel, via the external iliac artery, to minimize tissue irritation and reaction. Normal body temperature was maintained during anesthesia via an electronically maintained dermal pad. The animals were shaved at the top of the head, back of the neck and the inner left leg. The silicone tips were inserted through a 3.0 cm incision made on the inner left leg for cannulation of the internal iliac vein and femoral artery; the arterial catheter was sutured to the leg in a manner preventing occlusion of the catheter during normal rat movement. Excess catheter was directed subcutaneously and externalized through a 2.5 cm incision made in the dermis overlying bregma. The cranial incision was made with a scalpel after which three 0.19″ jeweler's screws were attached to the cranium in a 1.0 cm^2 area which encompasses bregma. […]

The subject of experiment [2] is normotensive (WKY) rats. In words: Mean arterial pressure (MAP), daily for 14 days, in conscious catheterized normotensive rats. Particulars: for Blood pressure, Significance, comparison over 14 days: WKY rats. As to the method:
as §1, §2
(§4) SHR and WKY rats (Harlan, Indianapolis, Ind.) at age 10 weeks and weighing ˜250 g were used as experimental subjects and monitored for a two week period. All experimental protocols were performed in conscious, unrestrained animals. The animals were individually housed in wire mesh cages in temperature-controlled rooms (23° C.) with a 12-hour light/dark cycle. Each animal was allowed free access to isoflavone reduced chow (Harlan, Indianapolis, Ind.) and distilled water throughout the protocol(s). In addition to ad libitum food and water, animals were dosed daily by oral gavage with BCX (1.0 mg/kg, in safflower oil) or BCX+soy (1.0 mg BCX/kg+80 mg isoflavones/kg, in safflower oil). […]

The subject of experiment [3] is spontaneously hypertensive (SHR) rats. The experiment is described as follows: Heart rate (HR), daily for 14 days, in conscious catheterized hypertensive rats. Particulars: for Effect on heart rate (in words): vs. control fed food only (SHR-Control). As to the method: as §1, §2, §3
All surgical procedures were performed in animals anesthetized with sodium pentobarbital (Nembutal®, Abbott Laboratories) at a dose of 50 mg/kg, i.p. In addition, all surgery was performed under sterile conditions in a location in the laboratory dedicated for that purpose and according to those procedures adopted by the IACUC at Des Moines University-Osteopathic Medical Center. The implantations of femoral arterial and venous catheters were performed three days prior to any experimentation. The arterial and venous catheters were constructed from silicone and Tygon® tubing (Saint-Gobain Performance Plastics Corporation). The smaller silicone tubing was placed within the vessel, via the external iliac artery, to minimize tissue irritation and reaction. Normal body temperature was maintained during anesthesia via an electronically maintained dermal pad. The animals were shaved at the top of the head, back of the neck and the inner left leg. […]

Experiment [4] relates to normotensive (WKY) rats. The experiment is described as follows: Heart rate (HR), daily for 14 days, in conscious catheterized normotensive rats. The procedure: as §1, §2, §4
Setting [5] is: vs. SHR-Control (rat chow only).
[6] abbreviates: vs. SHR-Saff (safflower oil only).
The mark [7] stands for this setting: vs. WKY-Saff (safflower oil only).

SMILES strings stand for the structures.

Regarding `CC1=C(/C=C/C(C)=C/C=C/C(C)=C/C=C/C=C(C)/C=C/C=C(C)/C=C/C2=C(C)C[C@@H](O)CC2(C)C)C(C)(C)CCC1` [BCX, β-cryptoxanthin], the “Days with statistically significant difference in blood pressure” value in experiment [1] (vs. SHR controls, p<0.05) fell in the range of 4 to 13 days. The “Blood pressure, Significance, comparison over 14 days” value is “Yes” in experiment [1] (setting [5]), “No” in experiment [1] (setting [6]), “No” with normotensive (WKY) rats [2] (vs. WKY-Control) and “No” in the experiment on normotensive (WKY) rats [2] (setting [7]). Moreover, the “Effect on mean arterial pressure / blood pressure (in words)” value is listed as “statistically decreased the blood pressure” in experiment [1] (vs. control fed food only (SHR-Control)); “significantly lower” in experiment [1] (vs. control fed food only (SHR-Control), listed as β-cryptoxanthin); “significantly lower” in experiment [1] (vs. safflower oil control (SHR-Saff)). Besides, the “Change in blood pressure (in words)” value in the experiment on normotensive (WKY) rats [2] (WKY normotensive rats, over 14 days of supplementation) is given as “did not show any significant blood pressure change”. Also, the “Heart rate, Significance, comparison over 14 days” value in experiment [3] (setting [5]) is listed as “Yes”; in experiment [3] (setting [6]), “No”; in the experiment with normotensive (WKY) rats [4] (vs. WKY-Control) it was “Yes”; with normotensive (WKY) rats [4] (setting [7]) it was “No”. Besides, the “Days with statistically significant lower heart rate” value in experiment [3] (vs. SHR-Control, p<0.05) is 6 to 13 days. Also, the “Effect on heart rate (in words)” value in experiment [3] was “statistically decreased the heart rate”; in experiment [3] (listed as β-cryptoxanthin), “significantly lower”; with normotensive (WKY) rats [4] (vs. WKY-Control), “statistical decrease in heart rate”.
